Key:
Type in all cases: physicochemical
[1] = UV photolysis of the indoline cage followed by absorbance at 248 nm; conditions: absorbance at 248 nm during irradiation
Description: FIGS. 6A and 6B test that assertion by following the fate of both the 4-methoxy-7-nitroindoline (MNI) group as well as the caged peptide during photolysis. In FIG. 6A, the absorbance of APC1 at 248 nm is followed as a function of time during irradiation. Absorbance at this wavelength is mainly due to the intact indoline cage. […] In FIG. 6B, photolysis of the caged peptide is followed by RP-HPLC. […] Mass spectroscopy was used to confirm the identity of both species.

[2] = Circular dichroism spectroscopy of peptide folding and assembly; conditions: for Folding state by CD under gelation conditions / Folding state by CD in water: 1% w/v; for Folding state by CD under gelation conditions: pH 7.4, 150 mM NaCl, 25 or 37° C.; for Folding state by CD in water: 5° C.; for Temperature needed to induce folding and assembly: pH 7.4 buffer with NaCl, ellipticity at 216 nm vs temperature
Procedure: The ability of APC1 and APC2 to fold and associate into β-sheet rich assemblies was monitored using circular dichroism (CD) spectroscopy. In water at 5° C., the CD spectra of 1% w/v solutions of APC1 and APC2 indicate that the peptides are unfolded under these conditions (FIG. 4A). […] The NaCl screens the lysine point charges and increasing the temperature drives the hydrophobic effect, both of which favor folding and assembly. The exact temperatures needed to induce folding and assembly of each peptide were determined by monitoring the mean ellipticity at 216 nm as a function of temperature as shown in FIG. 13. In all the CD experiments, self-supporting hydrogels of both peptides (pH 7.4, 150 mM NaCl) form directly in the cuvette after folding is triggered. The same procedure can be used to form the gels directly in a syringe. […] Also evident in the spectra are absorptions due to the indoline cage, which occur in the near UV-CD (240-380 nm). […] However, when the peptides fold and assemble, the indoline ring is placed into a chiral environment, such as that provided by the fibril's hydrophobic interior. […] Importantly, it also supports the assertion that if the glutamate's negative point-charge were to be unmasked when the peptides are in the folded and assembled fibrillar state, that this event should be disruptive.
Circular Dichroism (CD). CD spectra of peptide hydrogels were collected on an AVIV 410 spectropolarimeter (AVIV Biomedical Inc., NJ). For wavelength spectra of APC1 and APC2 in water, a 1 wt % solution of peptide was prepared by dissolving lyophilized peptide in water at 5° C. The peptide solution was transferred to a 0.1 mm path length cylindrical cell and placed in the spectrometer sample holder equilibrated at 5° C. For temperature-dependent folding of 1 wt % hydrogels, a 2 wt % peptide solution was first prepared by dissolving lyophilized peptide in water and chilling on ice. Then, an equal volume of chilled 100 mM BTP, 300 mM NaCl, pH 7.4 buffer was added, gently mixed, and quickly transferred to a 0.1 mm path length cylindrical cell and placed in the spectrometer sample holder equilibrated at 5° C. The CD spectra were collected from 200-260 nm or 200-400 nm as a function of temperature at 5 degree increments from 5-80° C. with 10 min equilibration at each temperature. For UV photolysis of 1% w/v hydrogels, the solution was prepared in a manner identical to the folding studies and placed in the spectrometer at 25° C. or 37° C. for 30 minutes. The hydrogel within the cylindrical cell was irradiated for the specified time interval, followed by recording the mean residue ellipticity at 216 nm. For APC1, irradiation and spectra were obtained at 10 second intervals for the first 60 seconds, then at 1 minute intervals for a total of 5 minutes. For APC2, irradiation and spectra were obtained at 1 minute intervals for a total of 15 minutes. At the final time point, a wavelength spectrum from 200-400 nm of each peptide was obtained. Peptide concentration was determined by UV spectroscopy using ε220nm=16448 M^−1cm^−1 for cAPC1 and cAPC2 and ε220nm=31144 M^−1cm^−1 for APC1 and APC2. The mean residue ellipticity [θ] was calculated from [θ]=(θobs/10 lc)/r, where θobs is the measured ellipticity in degrees, l is the path length in centimeters, c is the concentration in molar, and r is the number of residues in the sequence. Each CD spectra shown is representative of three individual experiments, where each data point represents the average of 30 measurements, with a variance in ellipticity of 0.2 millidegrees at each wavelength.

[3] = Oscillatory rheology of peptide hydrogels (formation, shear-thin/recovery, UV photodisruption); conditions: for Storage modulus (G′) of formed gel, regime I time sweep: 1% w/v peptide, pH 7.4, 6 rad/s, 0.2% strain, APC1 after 30 minutes; for Onset of gelation after triggering: regime I
Description: Oscillatory rheology was employed to study the rheological behavior of each gel under experimental conditions that mimic its use during the anastomosis procedure. Here, the storage modulus (G′), a measure of the gels' mechanical rigidity, is monitored in the rheometer under environmental conditions that mimic: (1) the initial (sol-gel) formation of the hydrogel in the syringe; (2) shear thinning of the material as it passes through the syringe needle during injection with subsequent hydrogel recovery in the vessel lumen; and (3) the disruption of the gel network (gel-sol) by UV photolysis after suturing. Monitoring gel behavior in a rheometer, although not exactly capturing the gel's response during the actual anastomosis procedure, allows quantitative and reproducible measurement of gel mechanical properties under highly controlled conditions. […] In regime I, the rate of hydrogel formation (sol-gel) is assessed in a time-sweep experiment that monitors the evolution of G′ after peptide folding and assembly is triggered for a 1% w/v solution of peptide. […] After completion of the initial time sweep, 1000% strain is applied to the material for 30 seconds in regime II to mimic syringe delivery of the gel. This application of strain results in an immediate decrease in G′ indicative of shear thinning that results in a viscous gel capable of flow. After the 30 seconds, the applied strain is decreased to 0.2% and the material is allowed to recover. […] Lastly, using an optically clear parallel plate in the rheometer, the recovered hydrogel is subjected to irradiation by UV light (365 nm) for the first 10 minutes of regime III, where the effect of photolysis on the storage modulus is monitored over time. […] Importantly, irradiation by UV rapidly disrupts the gel network affording a viscous material, which should be capable of dissolution when exposed to the shear of blood flow. Independent frequency- and strain-sweep measurements were also performed as shown in FIGS. 14A-14B and FIGS. 15A-15B.
Application of 1000% strain in the first 30 sec. of regime II quickly thins the APC2 gel. However, the resulting viscous material is unable to self-heal effectively and recovers only about 5% of its original mechanical rigidity. Finally, irradiation in regime III disrupts the weakly recovered gel. Although APC2 is initially able to form a very rigid gel, its inability to recover after being shear thinned precludes it use in the anastomosis procedure. […] Here, incorporation of the cage near the strand termini of the hairpin hampers the ability of the network to recover. Based on this rheological assessment, the APC1 gel was chosen for further study.
Oscillatory Rheology. Rheology experiments were performed on an AR-G2 Rheometer (TA Instruments, DE) equipped with a 25 mm stainless steel parallel plate geometry using a 0.5 mm gap height. A 2 wt % peptide solution was prepared by dissolving lyophilized peptide in water and chilling on ice. An equal volume of chilled 100 mM BTP, 300 mM NaCl, pH 7.4 buffer was added and gently mixed, then immediately transferred to the rheometer plate equilibrated at 5° C. In separate experiments, APC1 gels were prepared in syringe, or as a preformed slab, and incubated for 1 hour at 37° C. Gels were then shear-thinned delivered, or transferred as an intact gel slab, to the rheometer plate, respectively. A temperature ramp from 5° C. to the desired temperature (25° C. or 37° C.) over 100 seconds was performed, followed by a 60 minute dynamic time sweep using an angular frequency of 6 rads and application of 0.2% strain to monitor the storage (G′) and loss (G″) modulus of the hydrogel. The resulting hydrogel was further evaluated by performing a frequency sweep from 0.1 to 100 rads and a strain sweep at 6 rads from 0.1% to 1000% strain. Oil was placed around the sample and on the plate to prevent evaporation. […]

Substance	Irradiation time to almost complete photolysis of the indoline cage [1]	Folding state by CD under gelation conditions [2]	Folding state by CD in water [2]	Temperature needed to induce folding and assembly [2]	Storage modulus (G′) of formed gel, regime I time sweep [3]	Onset of gelation after triggering ([3]; 1% w/v)	Storage modulus (G′) after UV irradiation, regime III ([3]; 365 nm, 10 minutes, recovered 1% w/v gel)	Storage modulus (G′) recovered after shear thinning ([3]; 1000% strain for 30 seconds, then 0.2% strain, 1% w/v)
Ac-VKVKVKGKV^DPPTKZEVKVKV-NH2 [APC1]	90 s	β-sheet secondary structure	unfolded	25 °C	~2,500 Pa	within the first few minutes	~180 Pa	1900 Pa
VKVKGKVKV^DPPTKVEZKVKV [APC2]	–	β-sheet secondary structure	unfolded	37 °C	20,000 Pa	significant lag phase	–	–
